Assay results as given in PubChem BioAssay (NCI).
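All cell lines were grown in 96-well plates and treated with compound for 48 hours. Here, GI50 denotes the concentration required for 50% inhibition of growth. TGI is the concentration that stops growth completely.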

Assays:
Experiment in all cases: inhibition of tumour cell growth, NCI panel, 48 h
786-0 renal = system: 786-0 renal
A498 renal = system: A498 renal
A549 NSCLC = system: A549 NSCLC
ACHN renal = system: ACHN renal
BT-549 breast = system: BT-549 breast
CAKI-1 renal = system: CAKI-1 renal
CCRF-CEM leukemia = system: CCRF-CEM leukemia
COLO 205 colon = system: COLO 205 colon
DU-145 prostate = system: DU-145 prostate
EKVX NSCLC = system: EKVX NSCLC
HCC-2998 colon = system: HCC-2998 colon
HCT-116 colon = system: HCT-116 colon
HCT-15 colon = system: HCT-15 colon
HL-60(TB) leukemia = system: HL-60(TB) leukemia
HOP-62 NSCLC = system: HOP-62 NSCLC
HOP-92 NSCLC = system: HOP-92 NSCLC
HS 578T breast = system: HS 578T breast
HT29 colon = system: HT29 colon
IGROV1 ovarian = system: IGROV1 ovarian
K-562 leukemia = system: K-562 leukemia
KM12 colon = system: KM12 colon
LOX IMVI melanoma = system: LOX IMVI melanoma
M14 melanoma = system: M14 melanoma
MALME-3M melanoma = system: MALME-3M melanoma
MCF7 breast = system: MCF7 breast
MDA-MB-231 breast = system: MDA-MB-231 breast
MDA-MB-435 = system: MDA-MB-435
MOLT-4 leukemia = system: MOLT-4 leukemia
NCI-H226 lung = system: NCI-H226 lung
NCI-H23 lung = system: NCI-H23 lung
NCI-H460 lung = system: NCI-H460 lung
NCI-H522 lung = system: NCI-H522 lung
NCI/ADR-RES ovarian = system: NCI/ADR-RES ovarian
OVCAR-3 ovarian = system: OVCAR-3 ovarian
OVCAR-4 ovarian = system: OVCAR-4 ovarian
OVCAR-5 ovarian = system: OVCAR-5 ovarian
OVCAR-8 ovarian = system: OVCAR-8 ovarian
PC-3 prostate = system: PC-3 prostate
RPMI-8226 leukemia = system: RPMI-8226 leukemia
RXF 393 renal = system: RXF 393 renal
SF-268 CNS = system: SF-268 CNS
SF-295 CNS = system: SF-295 CNS
SF-539 CNS = system: SF-539 CNS
SK-MEL-2 melanoma = system: SK-MEL-2 melanoma
SK-MEL-28 melanoma = system: SK-MEL-28 melanoma
SK-MEL-5 melanoma = system: SK-MEL-5 melanoma
SK-OV-3 ovarian = system: SK-OV-3 ovarian
SN12C renal = system: SN12C renal
SNB-19 CNS = system: SNB-19 CNS
SNB-75 CNS = system: SNB-75 CNS
SW-620 colon = system: SW-620 colon
TK-10 renal = system: TK-10 renal
U251 CNS = system: U251 CNS
UACC-257 melanoma = system: UACC-257 melanoma
UACC-62 melanoma = system: UACC-62 melanoma
UO-31 renal = system: UO-31 renal

O=C1/C(=C(/c2ccccc2)N2CCOCC2)Cc2ccccc21
GI50 (786-0 renal): 1980 nM
TGI (786-0 renal): 3810 nM
GI50 (A498 renal): 5190 nM
TGI (A498 renal): 11400 nM
GI50 (A549 NSCLC): 2790 nM
TGI (A549 NSCLC): 8350 nM
GI50 (ACHN renal): 1640 nM
TGI (ACHN renal): 3690 nM
GI50 (BT-549 breast): 1260 nM
TGI (BT-549 breast): 3200 nM
GI50 (CAKI-1 renal): 186 nM
TGI (CAKI-1 renal): 2080 nM
GI50 (CCRF-CEM leukemia): 467 nM
TGI (CCRF-CEM leukemia): 2670 nM
GI50 (COLO 205 colon): 1340 nM
TGI (COLO 205 colon): 2940 nM
GI50 (DU-145 prostate): 948 nM
TGI (DU-145 prostate): 2290 nM
GI50 (EKVX NSCLC): 3210 nM
TGI (EKVX NSCLC): 13500 nM
GI50 (HCC-2998 colon): 2080 nM
TGI (HCC-2998 colon): 4260 nM
GI50 (HCT-116 colon): 919 nM
TGI (HCT-116 colon): 2440 nM
GI50 (HCT-15 colon): 1550 nM
TGI (HCT-15 colon): 5020 nM
GI50 (HL-60(TB) leukemia): 235 nM
TGI (HL-60(TB) leukemia): 485 nM
GI50 (HOP-62 NSCLC): 12500 nM
TGI (HOP-62 NSCLC): 27100 nM
GI50 (HOP-92 NSCLC): 1240 nM
TGI (HOP-92 NSCLC): 3010 nM
GI50 (HS 578T breast): 2630 nM
TGI (HS 578T breast): 12900 nM
GI50 (HT29 colon): 1830 nM
TGI (HT29 colon): 5280 nM
GI50 (IGROV1 ovarian): 1460 nM
TGI (IGROV1 ovarian): 3610 nM
GI50 (K-562 leukemia): 3420 nM
GI50 (KM12 colon): 2220 nM
TGI (KM12 colon): 5490 nM
GI50 (LOX IMVI melanoma): 920 nM
TGI (LOX IMVI melanoma): 2520 nM
GI50 (M14 melanoma): 1840 nM
TGI (M14 melanoma): 4670 nM
GI50 (MALME-3M melanoma): 1280 nM
TGI (MALME-3M melanoma): 3080 nM
GI50 (MCF7 breast): 1540 nM
TGI (MCF7 breast): 7380 nM
GI50 (MDA-MB-231 breast): 2300 nM
TGI (MDA-MB-231 breast): 5480 nM
GI50 (MDA-MB-435): 2170 nM
TGI (MDA-MB-435): 6870 nM
GI50 (MOLT-4 leukemia): > 100000 nM
TGI (MOLT-4 leukemia): > 100000 nM
GI50 (NCI-H226 lung): 3390 nM
TGI (NCI-H226 lung): 8990 nM
GI50 (NCI-H23 lung): 2640 nM
TGI (NCI-H23 lung): 8380 nM
GI50 (NCI-H460 lung): 4520 nM
TGI (NCI-H460 lung): 18600 nM
GI50 (NCI-H522 lung): 492 nM
TGI (NCI-H522 lung): 1890 nM
GI50 (NCI/ADR-RES ovarian): 4680 nM
TGI (NCI/ADR-RES ovarian): 21400 nM
GI50 (OVCAR-3 ovarian): 479 nM
TGI (OVCAR-3 ovarian): 1500 nM
GI50 (OVCAR-4 ovarian): 1520 nM
TGI (OVCAR-4 ovarian): 3000 nM
GI50 (OVCAR-5 ovarian): 3260 nM
TGI (OVCAR-5 ovarian): 9570 nM
GI50 (OVCAR-8 ovarian): 3900 nM
TGI (OVCAR-8 ovarian): 13700 nM
GI50 (PC-3 prostate): 1640 nM
TGI (PC-3 prostate): 6150 nM
GI50 (RPMI-8226 leukemia): 522 nM
GI50 (RXF 393 renal): 883 nM
TGI (RXF 393 renal): 2190 nM
GI50 (SF-268 CNS): 2290 nM
TGI (SF-268 CNS): 6350 nM
GI50 (SF-295 CNS): 12200 nM
TGI (SF-295 CNS): 28000 nM
GI50 (SF-539 CNS): 1900 nM
TGI (SF-539 CNS): 3910 nM
GI50 (SK-MEL-2 melanoma): 2030 nM
TGI (SK-MEL-2 melanoma): 6340 nM
GI50 (SK-MEL-28 melanoma): 1450 nM
TGI (SK-MEL-28 melanoma): 2850 nM
GI50 (SK-MEL-5 melanoma): 2250 nM
TGI (SK-MEL-5 melanoma): 6730 nM
GI50 (SK-OV-3 ovarian): 23100 nM
TGI (SK-OV-3 ovarian): 72600 nM
GI50 (SN12C renal): 2160 nM
TGI (SN12C renal): 6330 nM
GI50 (SNB-19 CNS): 10600 nM
TGI (SNB-19 CNS): 23800 nM
GI50 (SNB-75 CNS): 1480 nM
TGI (SNB-75 CNS): 3660 nM
GI50 (SW-620 colon): 1200 nM
TGI (SW-620 colon): 2650 nM
GI50 (TK-10 renal): 1290 nM
TGI (TK-10 renal): 2660 nM
GI50 (U251 CNS): 1650 nM
TGI (U251 CNS): 4570 nM
GI50 (UACC-257 melanoma): 2210 nM
TGI (UACC-257 melanoma): 6460 nM
GI50 (UACC-62 melanoma): 1790 nM
TGI (UACC-62 melanoma): 4240 nM
GI50 (UO-31 renal): 455 nM
TGI (UO-31 renal): 1080 nM
